Experimental data taken from patent US10378060B2, “ZNF365/ZFP365 biomarker predictive of anti-cancer response” (Dana-Farber Cancer Institute, Inc., priority 2011, dated 2019).

Experiments:
[1] = test system: U2OS cells; assay: 53BP1-positive DNA damage foci (DSB) staining; assay type: cell-based; conditions: ZNF365-deficient U2OS cells (shZNF-2 or shZNF-5), additional treatment with 1 μM ABT888
Text: FIGS. 10A-10C show increased DNA double strand breaks (DSB) in ZNF365-deficient cells.
U2OS cells infected with either a control scrambled shRNA (Scr) to establish the basal DSB levels or with either of two independent shRNA sequences targeting ZNF365 (shZNF-2 or shZNF-5) were scored for 53BP1-positive damage foci as an indicator of DSB (FIG. 10A; red highlighted dots indicates foci and dotted circles indicate nuclei). Quantification of the 53BP1-positive foci indicated increased numbers of DSB in ZNF365-deficient cells (FIG. 10B).

[2] = test system: MCF7 breast cancer cell line; assay: MTT cell proliferation assay; assay type: cell-based; conditions: MCF7 control (TR) vs shZNF cells, different doses of ABT888 for 48 hours with or without radiation (2 Gy)
Experimental: Control cells of the MCF7 breast cancer cell line (TR), as well as MCF7 cells transfected with shRNAs targeting ZNF365 (shZNF) were treated with different doses of the PARP inhibitor, ABT888, for 48 hours with or without radiation (2 Gy). A standard MTT cell proliferation assay was performed to determine cell viability.

## C[C@]1(c2nc3c(C(N)=O)cccc3[nH]2)CCCN1 [ABT888]
[1]
  53BP1-positive DNA damage foci as an indicator of DSB: became more prominent
[2]
  cell viability: ZNF365 deficiency sensitizes cells
